Test results: patent US8859574B2 (IRM LLC, priority 2008, dated 2014)

biological target: T1, IGF-1R Ba/F3 (Homo sapiens, UniProt P08069); assay: Ba/F3 Cell Viability Inhibition Assay (IGF-1R Ba/F3); format: cell-based, murine; details: Tel-TK transformed Ba/F3 cells, 48 hours, Britelite luminescence
T1 construct: fused on or other part: TEL- (or BCR-) IGF-1R in Ba/F3: the kinase part holds the site
How it was run: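 A 48 h compound treatment at 37 °C (3750 cells/well) was followed by Britelite luminescence to measure viability. Cells were Ba/F3 pro-B cells, IL-3-independent via TEL-fused IGF-1R kinase transduction. A logistic fit gave IC50 as 50% viability relative to DMSO control.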

T1 sequence (P08069 999-1274 limits assumed): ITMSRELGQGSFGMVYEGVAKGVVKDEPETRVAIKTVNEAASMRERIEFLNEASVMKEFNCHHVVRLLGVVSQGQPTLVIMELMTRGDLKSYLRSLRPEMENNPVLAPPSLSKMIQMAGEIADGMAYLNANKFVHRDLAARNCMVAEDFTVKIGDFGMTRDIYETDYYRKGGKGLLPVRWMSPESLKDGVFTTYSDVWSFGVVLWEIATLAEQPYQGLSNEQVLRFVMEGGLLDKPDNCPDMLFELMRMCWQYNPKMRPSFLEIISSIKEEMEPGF

SMILES | IC50 [nM]
Cc1cc(Nc2nc(Nc3cc(C)c(C4CCN(CCC(=O)NC5CC5)CC4)cc3F)ncc2Cl)n[nH]1 [Compound 247, 3-(4-(4-(5-chloro-4-(5-methyl-1H-pyrazol-3-ylamino)pyrimidin-2-ylamino)-5-fluoro-2-methylphenyl)piperidin-1-yl)-N-cyclopropylpropanamide] | 62
Cc1cc(C2CCNCC2)c(C)cc1Nc1ncc(Cl)c(Nc2cc(C(F)(F)F)[nH]n2)n1 [Compound 215, 5-chloro-N2-(2,5-dimethyl-4-(piperidin-4-yl)phenyl)-N4-(5-(trifluoromethyl)-1H-pyrazol-3-yl)pyrimidine-2,4-diamine] | 47
Cc1cc(Nc2nc(Nc3cc(C)c(C4CCN(C(=O)c5nc(C(C)C)no5)CC4)cc3C)ncc2Cl)n[nH]1 [Compound 270, (4-(4-(5-chloro-4-(5-methyl-1H-pyrazol-3-ylamino)pyrimidin-2-ylamino)-2,5-dimethylphenyl)piperidin-1-yl)(3-isopropyl-1,2,4-oxadiazol-5-yl)methanone] | 18
CNC(=O)CN1CCC(c2cc(C)c(Nc3ncc(Cl)c(Nc4cc(C(F)(F)F)[nH]n4)n3)cc2C)CC1 [Compound 220, 2-(4-(4-(5-chloro-4-(5-(trifluoromethyl)-1H-pyrazol-3-ylamino)pyrimidin-2-ylamino)-2,5-dimethylphenyl)piperidin-1-yl)-N-methylacetamide] | 37
Cc1cc(Nc2nc(Nc3cc(C)c(C4CCCCN4Cc4c(C)noc4C)cc3C)ncc2Cl)n[nH]1 (centres unmarked) [Compound 191, 5-chloro-N2-(4-(1-((3,5-dimethylisoxazol-4-yl)methyl)piperidin-2-yl)-2,5-dimethylphenyl)-N4-(5-methyl-1H-pyrazol-3-yl)pyrimidine-2,4-diamine] | 113
Cc1cc(Nc2nc(Nc3cc(C)c(C4CCN(Cc5noc(C(C)C)n5)CC4)cc3C)ncc2Cl)n[nH]1 [Compound 305, 5-chloro-N2-(4-(1-((5-isopropyl-1,2,4-oxadiazol-3-yl)methyl)piperidin-4-yl)-2,5-dimethylphenyl)-N4-(5-methyl-1H-pyrazol-3-yl)pyrimidine-2,4-diamine] | 25
Cc1cc(Nc2nc(Nc3cc(C)c(C4CCCCN4C[C@@H](O)C(F)(F)F)cc3C)ncc2Cl)n[nH]1 (stereo partly drawn) [Compound 229, (2R)-3-(2-(4-(5-chloro-4-(5-methyl-1H-pyrazol-3-ylamino)pyrimidin-2-ylamino)-2,5-dimethylphenyl)piperidin-1-yl)-1,1,1-trifluoropropan-2-ol] | 211
Cc1cc(Nc2ncc(Cl)c(N[C@@H]3CCCCNC3=O)n2)c(F)cc1C1CCN(C)CC1 (single isomer, unassigned) [Compound 11] | 65
CNC(=O)CN1CCC(c2cc(C)c(Nc3ncc(C(F)(F)F)c(Nc4cc(C)[nH]n4)n3)cc2C)CC1 [Compound 203, 2-(4-(2,5-dimethyl-4-(4-(5-methyl-1H-pyrazol-3-ylamino)-5-(trifluoromethyl)pyrimidin-2-ylamino)phenyl)piperidin-1-yl)-N-methylacetamide] | 15
Cc1cc(Nc2nc(Nc3cc(C)c(C4CCN(C(=O)C(C)N)CC4)cc3F)ncc2Cl)n[nH]1 (centres unmarked) [Compound 86, 2-amino-1-(4-(4-(5-chloro-4-(5-methyl-1H-pyrazol-3-ylamino)pyrimidin-2-ylamino)-5-fluoro-2-methylphenyl)piperidin-1-yl)propan-1-one] | 141
CCOC(=O)N1CCC(c2cc(F)c(Nc3ncc(Cl)c(Nc4cc(C)[nH]n4)n3)cc2C)CC1 [Compound 66, Ethyl 4-(4-(5-chloro-4-(5-methyl-1H-pyrazol-3-ylamino)pyrimidin-2-ylamino)-5-fluoro-2-methylphenyl)piperidine-1-carboxylate] | 64
Cc1cc(Nc2nc(Nc3cc(Cl)c(C4CCN(C(=O)CN(C)C)CC4)cc3Cl)ncc2Cl)n[nH]1 [Compound 77, 1-(4-(2,5-dichloro-4-(5-chloro-4-(5-methyl-1H-pyrazol-3-ylamino)pyrimidin-2-ylamino)phenyl)piperidin-1-yl)-2-(dimethylamino)ethanone] | 7
Cc1cc(Nc2nc(Nc3cc(C)c(C4CCN(Cc5ccncc5)CC4)cc3C)ncc2Cl)n[nH]1 [Compound 309, 5-chloro-N2-(2,5-dimethyl-4-(1-(pyridin-4-ylmethyl)piperidin-4-yl)phenyl)-N4-(5-methyl-1H-pyrazol-3-yl)pyrimidine-2,4-diamine] | 8
CCC(C(=O)NC)N1CCC(c2cc(C)c(Nc3ncc(Cl)c(Nc4cc(C)[nH]n4)n3)cc2C)CC1 (centres unmarked) [Compound 189, 2-(4-(4-(5-chloro-4-(5-methyl-1H-pyrazol-3-ylamino)pyrimidin-2-ylamino)-2,5-dimethylphenyl)piperidin-1-yl)-N-methylbutanamide] | 7
Cc1cc(Nc2nc(Nc3cc(C)c(C4CCN(C(=O)OC(C)C)CC4)cc3F)ncc2Cl)n[nH]1 [Compound 68, isopropyl 4-(4-(5-chloro-4-(5-methyl-1H-pyrazol-3-ylamino)pyrimidin-2-ylamino)-5-fluoro-2-methylphenyl)piperidine-1-carboxylate] | 80
CCN1CCC(c2cc(C)c(Nc3ncc(Cl)c(Nc4cc(C)[nH]n4)n3)cc2C)CC1 [Compound 211, 5-chloro-N2-(4-(1-ethylpiperidin-4-yl)-2,5-dimethylphenyl)-N4-(5-methyl-1H-pyrazol-3-yl)pyrimidine-2,4-diamine] | 9
Cc1cc(Nc2nc(Nc3cc(C)c(C4CCCN(C(=O)C5(N)CC5)C4)cc3C)ncc2Cl)n[nH]1 (centres unmarked) [Compound 187, (1-aminocyclopropyl)(3-(4-(5-chloro-4-(5-methyl-1H-pyrazol-3-ylamino)pyrimidin-2-ylamino)-2,5-dimethylphenyl)piperidin-1-yl)methanone] | 95
Cc1cc(Nc2nc(Nc3cc(C)c(C4=CCNCC4)cc3F)ncc2Cl)n[nH]1 [Compound 150, 5-chloro-N2-(2-fluoro-5-methyl-4-(1,2,3,6-tetrahydropyridin-4-yl)phenyl)-N4-(5-methyl-1H-pyrazol-3-yl)pyrimidine-2,4-diamine] | 25
CNCC(=O)N1CCC(c2cc(F)c(Nc3ncc(Cl)c(Nc4cc(C)[nH]n4)n3)cc2C)CC1 [Compound 80, 1-(4-(4-(5-chloro-4-(5-methyl-1H-pyrazol-3-ylamino)pyrimidin-2-ylamino)-5-fluoro-2-methylphenyl)piperidin-1-yl)-2-(methylamino)ethanone] | 103
Cc1cc(C2CCN(CCO)CC2)c(C)cc1Nc1ncc(Cl)c(Nc2cc(C3CC3)[nH]n2)n1 [Compound 204, 2-(4-(4-(5-chloro-4-(5-cyclopropyl-1H-pyrazol-3-ylamino)pyrimidin-2-ylamino)-2,5-dimethylphenyl)piperidin-1-yl)ethanol] | 16
Cc1cc(Nc2nc(Nc3cc(C)c(C4CCN(C(C)C(N)=O)CC4)cc3F)ncc2C(F)(F)F)n[nH]1 (centres unmarked) [Compound 53, 2-(4-(5-fluoro-2-methyl-4-(4-(5-methyl-1H-pyrazol-3-ylamino)-5-(trifluoromethyl)pyrimidin-2-ylamino)phenyl)piperidin-1-yl)propanamide] | 78
Cc1cc(Nc2nc(Nc3cc(C)c(C4CCN(C5CCSCC5)CC4)cc3C)ncc2Cl)n[nH]1 [Compound 174, 5-chloro-N2-(2,5-dimethyl-4-(1-(tetrahydro-2H-thiopyran-4-yl)piperidin-4-yl)phenyl)-N4-(5-methyl-1H-pyrazol-3-yl)pyrimidine-2,4-diamine] | 8
Cc1cc(Nc2nc(Nc3cc(C)c(C4CCNCC4)cc3F)ncc2Cl)n[nH]1 [Compound 2, 5-chloro-N2-(2-fluoro-5-methyl-4-(piperidin-4-yl)phenyl)-N4-(5-methyl-1H-pyrazol-3-yl)pyrimidine-2,4-diamine] | 50
Cc1cc(Nc2nc(Nc3cc(C)c(C4CCN(CC5CC5(F)F)CC4)cc3F)ncc2C(F)(F)F)n[nH]1 (centres unmarked) [Compound 251, N^2-(4-(1-((2,2-difluorocyclopropyl)methyl)piperidin-4-yl)-2-fluoro-5-methylphenyl)-N^4-(5-methyl-1H-pyrazol-3-yl)-5-(trifluoromethyl)pyrimidine-2,4-diamine] | 52
Cc1cc(Nc2nc(Nc3cc(C)c(C4CCN(C(=O)C5CN(C)C5)CC4)cc3C)ncc2Cl)n[nH]1 [Compound 120, (4-(4-(5-chloro-4-(5-methyl-1H-pyrazol-3-ylamino)pyrimidin-2-ylamino)-2,5-dimethylphenyl)piperidin-1-yl)(1-methylazetidin-3-yl)methanone] | 25
Cc1cc(Nc2nc(Nc3cc(C)c(C4CCN(Cc5c(C)noc5C)CC4)cc3F)ncc2Cl)n[nH]1 [Compound 19, 5-Chloro-N2-(4-(1-((3,5-dimethylisoxazol-4-yl)methyl)piperidin-4-yl)-2-fluoro-5-methylphenyl)-N4-(5-methyl-1H-pyrazol-3-yl)pyrimidine-2,4-diamine] | 56
Cc1cc(Nc2nc(Nc3cc(C)c(C4CCN(C(=O)CN5CCC5)CC4)cc3F)ncc2Cl)n[nH]1 [Compound 98, 2-(azetidin-1-yl)-1-(4-(4-(5-chloro-4-(5-methyl-1H-pyrazol-3-ylamino)pyrimidin-2-ylamino)-5-fluoro-2-methylphenyl)piperidin-1-yl)ethanone] | 64
Cc1cc(Nc2nc(Nc3cc(C)c(C4CCN(C(=O)N5CCOCC5)CC4)cc3F)ncc2Cl)n[nH]1 [Compound 111, (4-(4-(5-chloro-4-(5-methyl-1H-pyrazol-3-ylamino)pyrimidin-2-ylamino)-5-fluoro-2-methylphenyl)piperidin-1-yl)(morpholino)methanone] | 8
Cc1cc(Nc2nc(Nc3cc(C)c(C4CCN(C(=O)CN(C)C)CC4)cc3F)ncc2Cl)n[nH]1 [Compound 73, 1-(4-(4-(5-chloro-4-(5-methyl-1H-pyrazol-3-ylamino)pyrimidin-2-ylamino)-5-fluoro-2-methylphenyl)piperidin-1-yl)-2-(dimethylamino)ethanone] | 19
